In PubChem BioAssay AID248 (DTP/NCI, 2004):
Several values for one entry are separate records, joined by “and”; a condition that tells them apart may be missing. Equal entries are not always repeated. Toxic doses and inconclusive results are not listed. Cut-off read from the data, not from the text of the source: active = T/C of 150% or more; inactive = T/C below 125%.

System: L1210 leukemia ip in BDF1 mice, survival T/C
Experiment: NCI In Vivo Anticancer Drug Screen. Data for tumor model L1210 Leukemia (intraperitoneal) in B6D2F1 (BDF1) mice
Conditions: endpoint: mean survival time, higher = longer survival
Outline: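 Tumor cells were implanted, animals were treated, and survival was followed. The result divides the treated measurement by the vehicle-control measurement.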

[1] = dose: 100.0 mg/kg/injection, schedule: Q01DX001 (ip), vehicle: Klucel (hydroxypropylcellulose) (HPC)
[2] = dose: 100.0 mg/kg/injection, schedule: Q04DX003 (ip), vehicle: Klucel (hydroxypropylcellulose) (HPC)
[3] = dose: 200.0 mg/kg/injection, schedule: Q01DX001 (ip), vehicle: Klucel (hydroxypropylcellulose) (HPC)
[4] = dose: 200.0 mg/kg/injection, schedule: Q04DX003 (ip), vehicle: Klucel (hydroxypropylcellulose) (HPC)
[5] = dose: 400.0 mg/kg/injection, schedule: Q01DX001 (ip), vehicle: Klucel (hydroxypropylcellulose) (HPC)
[6] = dose: 400.0 mg/kg/injection, schedule: Q04DX003 (ip), vehicle: Klucel (hydroxypropylcellulose) (HPC)
[7] = dose: 100.0 mg/kg/injection, schedule: Q04DX003 (ip), vehicle: saline
[8] = dose: 100.0 mg/kg/injection, schedule: Q01DX009 (ip), vehicle: saline with Tween-80
[9] = dose: 200.0 mg/kg/injection, schedule: Q01DX009 (ip), vehicle: saline with Tween-80
[10] = dose: 400.0 mg/kg/injection, schedule: Q01DX009 (ip), vehicle: saline with Tween-80

Measured: T/C

O=C(O)CO/N=C/c1ccccc1Cl
inactive: dose: 200.0 mg/kg/injection, schedule: Q04DX002 (ip), vehicle: Klucel (hydroxypropylcellulose) (HPC) 98 % of control | dose: 400.0 mg/kg/injection, schedule: Q04DX002 (ip), vehicle: Klucel (hydroxypropylcellulose) (HPC) 95 % of control

C=C(Br)CNC(=O)NN1CCOCC1
inactive: [1] 115 % of control | [2] 95 % of control | [3] 111 % of control | [4] 98 % of control | [5] 102 % of control | [6] 97 % of control

C=CC1(C)CO1 (centres undefined)
inactive: [7] 93 % of control | dose: 200.0 mg/kg/injection, schedule: Q04DX003 (ip), vehicle: saline 112 % of control | dose: 400.0 mg/kg/injection, schedule: Q04DX003 (ip), vehicle: saline 96 % of control

Cc1ccc(-n2c(O)c(N=Nc3ccccc3C)c(=O)n(-c3ccc(Cl)cc3)c2=S)cc1
inactive: dose: 50.0 mg/kg/injection, schedule: Q01DX001 (ip), vehicle: Klucel (hydroxypropylcellulose) (HPC) 104 % of control | [1] 102 % of control | [3] 102 % of control

COc1ccc(/C=N/n2c(C)cc(C)c(C#N)c2=O)c(OC)c1OC
inactive: [8] 100 % of control | dose: 100.0 mg/kg/injection, schedule: Q04DX003 (ip), vehicle: saline with Tween-80 118 % of control | [9] 91 % of control | dose: 200.0 mg/kg/injection, schedule: Q04DX003 (ip), vehicle: saline with Tween-80 103 % of control | [10] 107 % of control | dose: 400.0 mg/kg/injection, schedule: Q04DX003 (ip), vehicle: saline with Tween-80 106 % of control

C1OC1[C@@H]1CC[C@H]1C1CO1 (some centres undefined)
inactive: dose: 50.0 mg/kg/injection, schedule: Q01DX001 (ip), vehicle: saline 98 % of control and 112 % of control | dose: 51.1 mg/kg/injection, schedule: Q01DX Z (ip), vehicle: carboxymethylcellulose (CMC) 103 % of control | dose: 51.1 mg/kg/injection, schedule: Q01DX Z (ip), vehicle: methylcellulose (MC) 109 % of control | dose: 76.6 mg/kg/injection, schedule: Q01DX Z (ip), vehicle: carboxymethylcellulose (CMC) 114 % of control | dose: 76.6 mg/kg/injection, schedule: Q01DX Z (ip), vehicle: methylcellulose (MC) 118 % of control | dose: 88.0 mg/kg/injection, schedule: Q01DX001 (ip), vehicle: saline 107 % of control | dose: 100.0 mg/kg/injection, schedule: Q01DX001 (ip), vehicle: saline 112 % of control and 118 % of control | dose: 115.0 mg/kg/injection, schedule: Q01DX Z (ip), vehicle: methylcellulose (MC) 106 % of control | dose: 133.0 mg/kg/injection, schedule: Q01DX001 (ip), vehicle: saline 109 % of control

CCSCC(O)CCl (centres undefined)
inactive: dose: 37.5 mg/kg/injection, schedule: Q04DX002 (ip), vehicle: saline 103 % of control | dose: 37.5 mg/kg/injection, schedule: Q04DX003 (ip), vehicle: Klucel (hydroxypropylcellulose) (HPC) 115 % of control | dose: 75.0 mg/kg/injection, schedule: Q04DX002 (ip), vehicle: saline 107 % of control | dose: 75.0 mg/kg/injection, schedule: Q04DX003 (ip), vehicle: Klucel (hydroxypropylcellulose) (HPC) 105 % of control | dose: 150.0 mg/kg/injection, schedule: Q04DX002 (ip), vehicle: saline 100 % of control | dose: 150.0 mg/kg/injection, schedule: Q04DX003 (ip), vehicle: Klucel (hydroxypropylcellulose) (HPC) 98 % of control

C1CCC2C(C1)NC1CCCCC12 (centres undefined)
inactive: [7] 97 % of control

NC1(C(=O)O)Cc2ccccc2B(O)OC1=O (centres undefined)
inactive: [2] 98 % of control | [4] 96 % of control | [6] 106 % of control

Cl[CH2][Sn]([c]1ccccc1)([c]1ccccc1)[c]1ccccc1
inactive: dose: 6.25 mg/kg/injection, schedule: Q01DX009 (ip), vehicle: saline with Tween-80 113 % of control | dose: 6.25 mg/kg/injection, schedule: Q01DX009 (ip), vehicle: saline 93 % of control | dose: 12.5 mg/kg/injection, schedule: Q01DX009 (ip), vehicle: saline with Tween-80 106 % of control | dose: 12.5 mg/kg/injection, schedule: Q01DX009 (ip), vehicle: saline 101 % of control | dose: 25.0 mg/kg/injection, schedule: Q01DX009 (ip), vehicle: saline with Tween-80 101 % of control

CC(=O)[C@H]1CC[C@H]2[C@@H]3CCC4=CC(=O)[C@H](C)C[C@]4(C)[C@@]3(F)C(=O)C[C@]12C
inactive: dose: 15.0 mg/kg/injection, schedule: Q01DX Z (sc), vehicle: steriod suspending solution 98 % of control | dose: 30.0 mg/kg/injection, schedule: Q01DX Z (sc), vehicle: steriod suspending solution 96 % of control | dose: 60.0 mg/kg/injection, schedule: Q01DX Z (sc), vehicle: steriod suspending solution 101 % of control and 113 % of control | dose: 100.0 mg/kg/injection, schedule: Q01DX009 (sc), vehicle: steriod suspending solution 116 % of control | dose: 100.0 mg/kg/injection, schedule: Q04DX003 (sc), vehicle: steriod suspending solution 98 % of control | dose: 120.0 mg/kg/injection, schedule: Q01DX Z (sc), vehicle: steriod suspending solution 105 % of control | dose: 200.0 mg/kg/injection, schedule: Q01DX009 (sc), vehicle: steriod suspending solution 110 % of control | dose: 200.0 mg/kg/injection, schedule: Q04DX003 (sc), vehicle: steriod suspending solution 98 % of control | dose: 240.0 mg/kg/injection, schedule: Q01DX Z (sc), vehicle: steriod suspending solution 103 % of control | dose: 400.0 mg/kg/injection, schedule: Q01DX009 (sc), vehicle: steriod suspending solution 111 % of control | dose: 400.0 mg/kg/injection, schedule: Q04DX003 (sc), vehicle: steriod suspending solution 98 % of control

O=S1(=O)N2CN3CN(C2)CN1C3
inactive: [1] 94 % of control | dose: 100.0 mg/kg/injection, schedule: Q01DX009 (ip), vehicle: Klucel (hydroxypropylcellulose) (HPC) 97 % of control | [3] 102 % of control | dose: 200.0 mg/kg/injection, schedule: Q01DX009 (ip), vehicle: Klucel (hydroxypropylcellulose) (HPC) 100 % of control | [5] 104 % of control

C=COc1c(Cl)cc(Cl)cc1Cl
inactive: [8] 93 % of control and 101 % of control | dose: 100.0 mg/kg/injection, schedule: Q04DX002 (ip), vehicle: saline with Tween-80 105 % of control and 107 % of control | [9] 101 % of control and 102 % of control | dose: 200.0 mg/kg/injection, schedule: Q04DX002 (ip), vehicle: saline with Tween-80 97 % of control and 98 % of control | [10] 100 % of control and 104 % of control | dose: 400.0 mg/kg/injection, schedule: Q04DX002 (ip), vehicle: saline with Tween-80 94 % of control and 101 % of control

COc1ccc(C)cc1NC(=O)NC(C)=O
inactive: dose: 50.0 mg/kg/injection, schedule: Q01DX009 (ip), vehicle: saline with Tween-80 92 % of control | [8] 88 % of control | [9] 95 % of control

O=C(O)CCCC1CCCCc2ccccc21 (centres undefined)
inactive: dose: 100.0 mg/kg/injection, schedule: Q04DX003 (ip), vehicle: acetone 103 % of control | dose: 200.0 mg/kg/injection, schedule: Q04DX003 (ip), vehicle: acetone 100 % of control | dose: 400.0 mg/kg/injection, schedule: Q04DX003 (ip), vehicle: acetone 110 % of control

CCC(Oc1ccccc1OC)C(=O)O (centres undefined)
inactive: [1] 105 % of control | [3] 103 % of control | [5] 103 % of control

CC1CCCNC1C (centres undefined)
inactive: dose: 25.0 mg/kg/injection, schedule: Q01DX009 (ip), vehicle: saline 95 % of control | dose: 50.0 mg/kg/injection, schedule: Q01DX009 (ip), vehicle: saline 103 % of control | [8] 102 % of control | dose: 100.0 mg/kg/injection, schedule: Q01DX009 (ip), vehicle: saline 100 % of control
